Measured values reported in patent US6342504B1, “Aromatic heterocyclic derivatives as enzyme inhibitors” (priority 1994, dated 2002).
Structures can show the parent of a compound that is named as a salt. Marks after values point to notes of the source that are not given here.

Key:
[1] = tested on: FeCl3-induced occlusive thrombus in rat carotid artery; test: Rat model of FeCl3-induced platelet-dependent arterial thrombosis; format: in vivo; details: for Incidence of Occlusion: n 6
Description: Rat Model of FeCl3-induced Platelet-dependent Arterial Thrombosis
Kurz, K. D., Main, B. W., and Sandusky, G. E., Thromb. […] In this model a platelet-rich, occlusive thrombus is formed in a segment of the rat carotid artery treated locally with a fresh solution of FeCl3 absorbed to a piece of filter paper. The FeCl3 is thought to diffuse into the treated segment of artery and cause de-endothelialization of the affected vessel surface. […] The effect of a test compound on the incidence of occlusive thrombus formation following the application of the FeCl3 is monitored by ultrasonic flowtometry and is used as the primary end point. The use of flowtometry to measure carotid artery blood flow, is a modification of the original procedure in which thermal detection of clot formation was employed. Kurz, K. D., Main, B. W., and Sandusky, G. E., Thromb.
Male Harlan Sprague Dawley rats (420-450 g) were acclimated at least 72 hours prior to use and fasted for 12 hours prior to surgery with free access to water. The animals were prepared, anesthetized with Nembutal followed by the insertion of catheters for blood pressure monitoring, drug and anesthesia delivery. The left carotid artery was isolated by making a midline cervical incision followed by blunt dissection and spreading techniques to separate a 2 cm segment of the vessel from the carotid sheath. A silk suture is inserted under the proximal and distal ends of the isolated vessel to provide clearance for the placement of a ultrasonic flow probe (Transonic) around the proximal end of the vessel. The probe is then secured with a stationary arm.
The test compound was administered as a single intravenous bolus at the doses outlined in Table 4 after placement of the flow probe and 5 minutes prior to the thrombogenic stimulus. At t=0, a 3 mm diameter piece of filter paper (Whatman #3) soaked with 10 microliters of a 35% solution of fresh FeCl3 (made up in water) was applied the segment of isolated carotid artery distal to the flow probe. Blood pressure, blood flow, heart rate, and respiration were monitored for 60 minutes.
The incidence of occlusion (defined as the attainment of zero blood flow) was recorded as the primary end point.
This allows a direct comparison of the antithrombotic efficacy of [3-[(benzylsulfonyl)amino]-2-oxo-1,2-dihydropyridyl]acetyl-L-argininal, with other antithrombotic agents which have also been evaluated in this model as described above. Table 5 lists the ED50 values for several well known anticoagulant agents in this model compared to [3-[(benzylsulfonyl)amino]-2-oxo-1,2-dihydropyridyl]acetyl-L-argininal.

human alpha thrombin = biological target: T1, human alpha thrombin (Homo sapiens, UniProt P00734); test: Thrombin (fIIa) IC50 assay, chromogenic substrate Pefachrome t-PA; format: biochemical
T1 construct: Purified human alpha-thrombin; purchased Enzyme Research Laboratories, Inc
Description: (§1) The ability of compounds of the present invention to act as a selective inhibitor of thrombin catalytic activity was assessed by determining the concentration of compound which inhibited the activity of this enzyme by 50%, (IC50), and comparing this value to that determined for all or some of the following related serine proteases: recombinant tissue plasminogen activator (rt-PA), plasmin, activated protein C, chymotrypsin, factor Xa and trypsin.
(§2) The buffer used for all assays was HBSA (10 mM HEPES, pH 7.5, 150 mM sodium chloride, 0.1% bovine serum albumin).
(§3) The assay for IC50 determinations was conducted by combining in appropriate wells of a Corning microtiter plate, 50 microliters of HBSA, 50 microliters of the test compound at a specified concentration (covering a broad concentration range) diluted in HBSA (or HBSA alone for VO (uninhibited velocity) measurement), and 50 microliters of the enzyme diluted in HBSA. Following a 30 minute incubation at ambient temperature, 50 microliters of the substrate at the concentrations specified below were added to the wells, yielding a final total volume of 200 microliters. The initial velocity of chromogenic substrate hydrolysis was measured by the change in absorbance at 405 nm using a Thermo Max® Kinetic Microplate Reader over a 5 minute period in which less than 5% of the added substrate was utilized. The concentration of added inhibitor which caused a 50% decrease in the initial rate of hydrolysis was defined as the IC50 value.
Enzyme activity was determined using the chromogenic substrate, Pefachrome t-PA (CH3SO2-D-hexahydrotyrosine-glycyl-L-Arginine-p-nitroaniline, obtained from Pentapharm Ltd.). The substrate was reconstituted in deionized water prior to use. Purified human a-thrombin was obtained from Enzyme Research Laboratories, Inc. The buffer used for all assays was HBSA (10 mM HEPES, pH 7.5, 150 mM sodium chloride, 0.1% bovine serum albumin).
IC50 determinations were conducted where HBSA ([…]), a-thrombin (50 μl) and inhibitor (50 μl) (covering a broad concentration range), were combined in appropriate wells and incubated for 30 minutes at room temperature prior to the addition of substrate Pefachrome-t-PA (50 μl). The initial velocity of Pefachrome t-PA hydrolysis was measured by the change in absorbance at 405 nm using a Thermo Max® Kinetic Microplate Reader over a 5 minute period in which less than 5% of the added substrate was utilized. The concentration of added inhibitor which caused a 50% decrease in the initial rate of hydrolysis was defined as the IC50 value.

[2] = tested on: pooled normal human plasma; test: Ex vivo anticoagulant effect: activated partial thromboplastin time (APTT) in plasma; format: biochemical
Description: FIG. 6 depicts the anticoagulant effect of [3-[(benzylsulfonyl)amino]-2-oxo-1,2-dihydropyridyl] acetyl-L-arginal measured in citrated human plasma, closed circles (l), using the activated partial thromboplastin time (APTT) assay. […] The data is the mean of two independent determinations.
The ex vivo anticoagulant effect of [3-[(benzylsulfonyl)amino]-2-oxo-1,2-dihydropyridyl]acetyl-L-argininal was determined by measuring the prolongation of the activated partial thromboplastin time (APTT) over a broad concentration range of the added inhibitor, using pooled normal human plasma. Fresh frozen citrated pooled normal human plasma was obtained from George King Biomedical, Overland Park, Kans. Measurements of APTT were made using the Coag-A-Mate RA4 automated coagulometer (General Diagnostics, Organon Technica, Oklahoma City, Okla.) using the Platelin® L reagent (Organon Technica, Durham, N.C.) as the initiator of clotting according to the manufacturer's instructions. The assay was conducted by making a series of dilutions of the test compounds in rapidly thawed plasma followed by adding 200 microliters to the wells of the assay carousel.

human plasmin = human plasmin (Homo sapiens, UniProt P00747); test: biochemical; details: 30 minute incubation; read-out: IC50 Plasmin (Table 2)
Chain of human plasmin (P00747 97-580): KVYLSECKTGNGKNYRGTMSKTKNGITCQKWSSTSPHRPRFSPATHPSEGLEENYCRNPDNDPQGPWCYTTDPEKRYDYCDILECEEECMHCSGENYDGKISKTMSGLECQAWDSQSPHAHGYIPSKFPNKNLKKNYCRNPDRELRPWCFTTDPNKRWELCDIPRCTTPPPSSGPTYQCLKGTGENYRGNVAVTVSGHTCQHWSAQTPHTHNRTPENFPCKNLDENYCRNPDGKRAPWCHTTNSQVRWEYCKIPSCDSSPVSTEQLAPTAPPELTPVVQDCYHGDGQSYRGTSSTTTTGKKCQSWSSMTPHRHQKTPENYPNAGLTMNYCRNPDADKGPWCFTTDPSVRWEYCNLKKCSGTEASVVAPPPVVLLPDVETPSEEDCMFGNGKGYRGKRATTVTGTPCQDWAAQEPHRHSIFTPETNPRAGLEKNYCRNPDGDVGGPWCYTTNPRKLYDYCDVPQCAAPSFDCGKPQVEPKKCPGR
Chain of human plasmin (P00747 581-810): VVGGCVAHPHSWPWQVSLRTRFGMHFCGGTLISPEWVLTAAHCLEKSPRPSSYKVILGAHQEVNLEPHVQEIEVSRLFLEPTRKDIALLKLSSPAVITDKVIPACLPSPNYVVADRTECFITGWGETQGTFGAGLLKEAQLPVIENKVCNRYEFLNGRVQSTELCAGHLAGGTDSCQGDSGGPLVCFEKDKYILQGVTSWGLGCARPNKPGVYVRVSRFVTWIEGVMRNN
Description: as §1, §2, §3
Plasmin catalytic activity was determined using the chromogenic substrate, S-2366 [L-pyroglutomyl-L-prolyl-L-arginine-p-nitroaniline hydrochloride], which was obtained from Pharmacia-Upjohn. The substrate was made up in deionized water followed by dilution in HBSA prior to the assay in which the final concentration was 300 micromolar (about 2.5-times Km). Purified human plasmin was obtained from Enzyme Research Laboratories, Inc. The enzyme was diluted into HBSA prior to assay in which the final concentration was […].

Q: What does the source list for `N=C(N)NCCC[C@@H](C=O)NC(=O)Cn1cccc(NS(=O)(=O)Cc2ccccc2)c1=O` [Example 10, [3-[(benzylsulfonyl)amino]-2-oxo-1,2-dihydropyridyl]acetyl-L-argininal, trifluoroacetate salt]?
A: Incidence of Occlusion ([1]; 0.3 mg/kg single intravenous bolus 5 minutes prior to FeCl3, monitored 60 minutes): 6/6; Incidence of Occlusion ([1]; 1.0 mg/kg single intravenous bolus 5 minutes prior to FeCl3): 3/6; Incidence of Occlusion ([1]; 3.0 mg/kg single intravenous bolus 5 minutes prior to FeCl3, p ≦ 0.05 from saline control): 1/6*; Incidence of Occlusion ([1]; 5.0 mg/kg single intravenous bolus 5 minutes prior to FeCl3, p ≦ 0.05 from saline control): 0/6*; ED50 ([1]; Rattus norvegicus, read-out: ED50 for thrombus prevention (dose that prevents complete thrombotic occlusion in 50% of animals)): 1 mg/kg; IC50 (human alpha thrombin): 0.66 nM; concentration which caused a doubling of the control clotting time (APTT) ([2]; citrated human plasma, control clotting time 29 seconds, mean of two independent determinations): 7.7 µM; prolongation of the APTT ([2]; pooled normal human plasma, broad concentration range): prolonged the APTT in a dose dependent manner; IC50 (human plasmin): > 2500 nM
